Measurements: patent US11230542B2, “Inhibitors of integrated stress response pathway” (Praxis Biotech LLC, priority 2017, dated 2022)

What was measured:
C57Bl/6J mice with TBI = assay: Learning memory, long-term memory and social behavior after traumatic brain injury (TBI); assay type: in vivo, mouse
Description: Wild type three-month-old male C57Bl/6J mice were randomly assigned to TBI or sham surgeries. Animals were anesthetized and maintained at 2% isoflurane and secured to a stereotaxic frame with nontraumatic ear bars. The hair on their scalp was removed, and eye ointment and betadine were applied to their eyes and scalp, respectively. A midline incision was made to expose the skull. A unilateral TBI was induced in the right parietal lobe using the controlled cortical impact model (Nat Neurosci. 2014 August; 17(8): 1073-82). Mice received a 3.5-mm diameter craniectomy, a removal of part of the skull, using an electric microdrill. The coordinates of the craniectomy were: anteroposterior, −2.00 mm and mediolateral, +2.00 mm with respect to bregma. After the craniectomy, the contusion was induced using a 3-mm convex tip attached to an electromagnetic impactor (Leica). The contusion depth was set to 0.95 mm from dura with a velocity of 4.0 m/s sustained for 300 ms. These injury parameters were chosen to target, but not penetrate, the hippocampus. Sham animals received craniectomy surgeries but without the focal injury. After focal TBI surgery, the scalp was sutured and the animal was allowed to recover in an incubation chamber set to 37° C. Animals were returned to their home cage after showing normal walking and grooming behavior.
After 28 days post injury (dpi), animals were tested on the RAWM assay (see above). Animals ran 12 trials during learning test and 4 trials during memory test. Last three trials from learning test and all four trials from memory test were averaged to determine learning memory (learning test) and long-term memory (memory test). […]
To quantitate social tendencies of the treated mice, the time spent with a novel conspecific mouse was measured in a Crawley's three-chamber box (J Vis Exp. 2011; (48): 2473). […] The time spent with the never-before-met animal was recorded. Direct contact between the treated mouse and the housing cage or stretching of the body of the subject mouse in an area 3-5 cm around the housing cage is counted as an active contact.

[1] = test system: Balb/c mice with immobilized hindlimb; assay: Immobilization-induced muscle atrophy; assay type: in vivo, mouse; details: 10 mg/kg oral, 3 days immobilization
Method: Wild type eight-weeks-old male Balb/c mice obtained from the vivarium Fundacion Ciencia & Vida Chile (Santiago, Chile) were used. Mice were housed in independent plastic cages, fed ad libitum in a room maintained at 25° C. with a 12-h:12-h light:dark cycle.
Twenty-four hours before and during the 3 days of immobilization procedures, animals received oral administration via feeding tubes (15 gauge) of vehicle (50% Polyethylene glycol 400 (Sigma-Aldrich P3265) in distilled water or 10 mg/kg of compound 3 formulated in vehicle.
One hindlimb was immobilized with a plastic stick placed over and under the limb and fixed with a medical adhesive bandage. Animals were daily monitored. The immobilization procedure prevented movement of the immobilized leg alone. After 3 days, the animals were sacrificed and gastrocnemius, quadriceps and tibialis anterior muscles were removed from both hindlimbs, the contralateral, non-immobilized leg being used as an internal control. […]
Upon collection, muscles were immediately frozen in liquid nitrogen and then stored at −80° C. […] Protein concentration in supernatants was determined using BCA Protein Assay Kit (Pierce). […]
Puromycin (12D10) (Merck Millipore) and β-actin (Sigma-Aldrich) antibodies were used as primary antibodies. […] Quantification of protein bands was done by densitometry using ImageJ software. […]

O=C(COc1ccc(Cl)cc1)N[C@H]1CC[C@H](NC[C@@H](O)COc2ccc(Cl)cc2)CC1 (single isomer, unassigned) [Compound 3, (+)-2-(4-chlorophenoxy)-N-(4-((3-(4-chlorophenoxy)-2-hydroxypropyl)amino)cyclohexyl)acetamide]
learning memory, number of errors in RAWM (C57Bl/6J mice with TBI; 5 mg/kg intraperitoneally, 28-29 dpi, versus vehicle): made significantly less errors over the course of training | long-term memory, RAWM (C57Bl/6J mice with TBI; 35 dpi, 7 days after training, versus vehicle): a similar trend was seen | social behavior, time spent with the novel mouse (C57Bl/6J mice with TBI; 42 dpi, Crawley's three-chamber box): spent more time with the novel mouse at levels similar to those animals from sham group | protein synthesis in immobilized hindlimb muscle ([1]; gastrocnemius): partial recovery of protein synthesis | protein synthesis in immobilized hindlimb muscle ([1]; tibialis anterior and quadriceps): complete recovery of protein synthesis
